{"source": "patent US9113629B2", "about": "“4-amino-6-(4-substituted-phenyl)-picolinates and 6-amino-2-(4-substituted-phenyl)-pyrimidine-4-carboxylates and their use as herbicides” (DOW AGROSCIENCES LLC, priority 2013, dated 2015)", "key": {"[1]": {"system": "Key Broadleaf Weed and Crop Species", "test": "Post-emergent Test II herbicidal activity (Table 5)", "format": "in vivo", "conditions": "post-emergence, 336 h, 14 days after application; for pest or weed control at 70 g/ha: application rate 70 g ai/ha; for pest or weed control at 140 g/ha: application rate 140 g ai/ha", "how_it_was_run": "(§1)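 Test species were raised 7–21 d under greenhouse conditions until reaching the first or second true leaf, sprayed with formulated compound at 187 L/ha, and kept subirrigated to avoid wash-off. Fourteen days later, damage was rated visually on a 0–100% scale against untreated plants.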"}, "[2]": {"system": "Key Grass and Sedge Weeds as well as Grass Crops", "test": "Post-emergent Test II herbicidal activity (Table 6)", "format": "in vivo", "conditions": "post-emergence, 336 h; for pest or weed control at 70 g/ha: 70 g ai/ha; for pest or weed control at 140 g/ha: 140 g ai/ha", "how_it_was_run": "as §1"}, "[3]": {"conditions": "ABUTH: velvetleaf (Abutilon theophrasti), read-out: Visual Growth Reduction (%) 14 Days After Application, ABUTH"}, "[4]": {"conditions": "AMARE: redroot pigweed (Amaranthus retroflexus), read-out: Visual Growth Reduction (%) 14 Days After Application, AMARE"}, "[5]": {"conditions": "BRSNN: oilseed-rape, canola (Brassica napus), read-out: Visual Growth Reduction (%) 14 Days After Application, BRSNN"}, "[6]": {"conditions": "CHEAL: lambsquarters (Chenopodium album), read-out: Visual Growth Reduction (%) 14 Days After Application, CHEAL"}, "[7]": {"conditions": "EPHHL: wild poinsettia (Euphorbia heterophylla), read-out: Visual Growth Reduction (%) 14 Days After Application, EPHHL"}, "[8]": {"conditions": "HELAN: sunflower (Helianthus annuus), read-out: Visual Growth Reduction (%) 14 Days After Application, HELAN"}, "[9]": {"conditions": "VIOTR: wild pansy (Viola tricolor), read-out: Visual Growth Reduction (%) 14 Days After Application, VIOTR"}, "[10]": {"conditions": "CYPES: yellow nutsedge (Cyperus esculentus), read-out: Visual Growth Reduction (%) 14 Days After Application, CYPES"}, "[11]": {"conditions": "DIGSA: crabgrass (Digitaria sanguinalis), read-out: Visual Growth Reduction (%) 14 Days After Application, DIGSA"}, "[12]": {"conditions": "ECHCG: barnyardgrass (Echinochloa crus-galli), read-out: Visual Growth Reduction (%) 14 Days After Application, ECHCG"}, "[13]": {"conditions": "ORYSA: rice (Oryza sativa), crop, read-out: Visual Growth Reduction (%) 14 Days After Application, ORYSA"}, "[14]": {"conditions": "SETFA: giant foxtail (Setaria faberi), read-out: Visual Growth Reduction (%) 14 Days After Application, SETFA"}, "[15]": {"conditions": "SORVU: grain sorghum (Sorghum vulgare), read-out: Visual Growth Reduction (%) 14 Days After Application, SORVU"}, "[16]": {"conditions": "TRZSS (wheat, Triticum aestivum), crop, read-out: Visual Growth Reduction (%) 14 Days After Application, TRZSS"}, "[17]": {"conditions": "ZEAMX: maize, corn (Zea mays), crop, read-out: Visual Growth Reduction (%) 14 Days After Application, ZEAMX"}}, "note": "Read-outs that look alike come from different tables or passages of the source.", "data": [{"compound": "COC(=O)c1nc(-c2cccc(F)c2F)c(F)c(N)c1Cl", "note": "[Compound 199]", "values": [{"measurement": "pest or weed control at 70 g/ha", "setting": "[1]; [3]", "result": "95 to 100", "unit": "%"}, {"measurement": "pest or weed control at 140 g/ha", "setting": "[1]; [3]", "result": "95 to 100", "unit": "%"}, {"measurement": "pest or weed control at 70 g/ha", "setting": "[1]; [4]", "result": "95 to 100", "unit": "%"}, {"measurement": "pest or weed control at 140 g/ha", "setting": "[1]; [4]", "result": "95 to 100", "unit": "%"}, {"measurement": "pest or weed control at 70 g/ha", "setting": "[1]; [5]", "result": "85 to 94", "unit": "%"}, {"measurement": "pest or weed control at 140 g/ha", "setting": "[1]; [5]", "result": "95 to 100", "unit": "%"}, {"measurement": "pest or weed control at 70 g/ha", "setting": "[1]; [6]", "result": "85 to 94", "unit": "%"}, {"measurement": "pest or weed control at 140 g/ha", "setting": "[1]; [6]", "result": "95 to 100", "unit": "%"}, {"measurement": "pest or weed control at 70 g/ha", "setting": "[1]; [7]", "result": "60 to 74", "unit": "%"}, {"measurement": "pest or weed control at 140 g/ha", "setting": "[1]; [7]", "result": "85 to 94", "unit": "%"}, {"measurement": "pest or weed control at 70 g/ha", "setting": "[1]; [8]", "result": "75 to 84", "unit": "%"}, {"measurement": "pest or weed control at 140 g/ha", "setting": "[1]; [8]", "result": "95 to 100", "unit": "%"}, {"measurement": "pest or weed control at 70 g/ha", "setting": "[1]; [9]", "result": "0 to 29", "unit": "%"}, {"measurement": "pest or weed control at 140 g/ha", "setting": "[1]; [9]", "result": "30 to 44", "unit": "%"}, {"measurement": "pest or weed control at 70 g/ha", "setting": "[2]; [10]", "result": "0 to 29", "unit": "%"}, {"measurement": "pest or weed control at 140 g/ha", "setting": "[2]; [10]", "result": "0 to 29", "unit": "%"}, {"measurement": "pest or weed control at 70 g/ha", "setting": "[2]; [11]", "result": "0 to 29", "unit": "%"}, {"measurement": "pest or weed control at 140 g/ha", "setting": "[2]; [11]", "result": "0 to 29", "unit": "%"}, {"measurement": "pest or weed control at 70 g/ha", "setting": "[2]; [12]", "result": "0 to 29", "unit": "%"}, {"measurement": "pest or weed control at 140 g/ha", "setting": "[2]; [12]", "result": "0 to 29", "unit": "%"}, {"measurement": "pest or weed control at 70 g/ha", "setting": "[2]; [13]", "result": "0 to 29", "unit": "%"}, {"measurement": "pest or weed control at 140 g/ha", "setting": "[2]; [13]", "result": "0 to 29", "unit": "%"}, {"measurement": "pest or weed control at 70 g/ha", "setting": "[2]; [14]", "result": "0 to 29", "unit": "%"}, {"measurement": "pest or weed control at 140 g/ha", "setting": "[2]; [14]", "result": "0 to 29", "unit": "%"}, {"measurement": "pest or weed control at 70 g/ha", "setting": "[2]; [15]", "result": "0 to 29", "unit": "%"}, {"measurement": "pest or weed control at 140 g/ha", "setting": "[2]; [15]", "result": "0 to 29", "unit": "%"}, {"measurement": "pest or weed control at 70 g/ha", "setting": "[2]; [16]", "result": "0 to 29", "unit": "%"}, {"measurement": "pest or weed control at 140 g/ha", "setting": "[2]; [16]", "result": "0 to 29", "unit": "%"}, {"measurement": "pest or weed control at 70 g/ha", "setting": "[2]; [17]", "result": "0 to 29", "unit": "%"}, {"measurement": "pest or weed control at 140 g/ha", "setting": "[2]; [17]", "result": "0 to 29", "unit": "%"}]}, {"compound": "N#Cc1ccc(-c2nc(C(=O)O)c(Cl)c(N)c2F)cc1F", "note": "[Compound 156]", "values": [{"measurement": "pest or weed control at 70 g/ha", "setting": "[1]; [3]", "result": "60 to 74", "unit": "%"}, {"measurement": "pest or weed control at 140 g/ha", "setting": "[1]; [3]", "result": "75 to 84", "unit": "%"}, {"measurement": "pest or weed control at 70 g/ha", "setting": "[1]; [4]", "result": "95 to 100", "unit": "%"}, {"measurement": "pest or weed control at 140 g/ha", "setting": "[1]; [4]", "result": "95 to 100", "unit": "%"}, {"measurement": "pest or weed control at 70 g/ha", "setting": "[1]; [5]", "result": "75 to 84", "unit": "%"}, {"measurement": "pest or weed control at 140 g/ha", "setting": "[1]; [5]", "result": "85 to 94", "unit": "%"}, {"measurement": "pest or weed control at 70 g/ha", "setting": "[1]; [6]", "result": "95 to 100", "unit": "%"}, {"measurement": "pest or weed control at 140 g/ha", "setting": "[1]; [6]", "result": "95 to 100", "unit": "%"}, {"measurement": "pest or weed control at 70 g/ha", "setting": "[1]; [7]", "result": "85 to 94", "unit": "%"}, {"measurement": "pest or weed control at 140 g/ha", "setting": "[1]; [7]", "result": "85 to 94", "unit": "%"}, {"measurement": "pest or weed control at 70 g/ha", "setting": "[1]; [8]", "result": "95 to 100", "unit": "%"}, {"measurement": "pest or weed control at 140 g/ha", "setting": "[1]; [8]", "result": "95 to 100", "unit": "%"}, {"measurement": "pest or weed control at 70 g/ha", "setting": "[1]; [9]", "result": "60 to 74", "unit": "%"}, {"measurement": "pest or weed control at 140 g/ha", "setting": "[1]; [9]", "result": "60 to 74", "unit": "%"}, {"measurement": "pest or weed control at 70 g/ha", "setting": "[2]; [10]", "result": "60 to 74", "unit": "%"}, {"measurement": "pest or weed control at 140 g/ha", "setting": "[2]; [10]", "result": "85 to 94", "unit": "%"}, {"measurement": "pest or weed control at 70 g/ha", "setting": "[2]; [11]", "result": "60 to 74", "unit": "%"}, {"measurement": "pest or weed control at 140 g/ha", "setting": "[2]; [11]", "result": "75 to 84", "unit": "%"}, {"measurement": "pest or weed control at 70 g/ha", "setting": "[2]; [12]", "result": "75 to 84", "unit": "%"}, {"measurement": "pest or weed control at 140 g/ha", "setting": "[2]; [12]", "result": "85 to 94", "unit": "%"}, {"measurement": "pest or weed control at 70 g/ha", "setting": "[2]; [13]", "result": "0 to 29", "unit": "%"}, {"measurement": "pest or weed control at 140 g/ha", "setting": "[2]; [13]", "result": "0 to 29", "unit": "%"}, {"measurement": "pest or weed control at 70 g/ha", "setting": "[2]; [14]", "result": "85 to 94", "unit": "%"}, {"measurement": "pest or weed control at 140 g/ha", "setting": "[2]; [14]", "result": "95 to 100", "unit": "%"}, {"measurement": "pest or weed control at 70 g/ha", "setting": "[2]; [15]", "result": "60 to 74", "unit": "%"}, {"measurement": "pest or weed control at 140 g/ha", "setting": "[2]; [15]", "result": "60 to 74", "unit": "%"}, {"measurement": "pest or weed control at 70 g/ha", "setting": "[2]; [16]", "result": "45 to 59", "unit": "%"}, {"measurement": "pest or weed control at 140 g/ha", "setting": "[2]; [16]", "result": "60 to 74", "unit": "%"}, {"measurement": "pest or weed control at 70 g/ha", "setting": "[2]; [17]", "result": "75 to 84", "unit": "%"}, {"measurement": "pest or weed control at 140 g/ha", "setting": "[2]; [17]", "result": "75 to 84", "unit": "%"}]}]}
